Source: patent publication US6949542B2, “Dihydro-benzo[b][1,4]diazepin-2-one derivatives” (Hoffman-La Roche Inc., priority 2002, dated 2005)
Read-outs that look alike come from different tables or passages of the source.

Experiments:
[1] = target: T1, rat mGlu2 receptor (Rattus norvegicus, UniProt P31421); assay: [3H]-LY354740 binding on mGlu2 transfected CHO cell membranes
T1 construct: expressed in transfected cells; vector pcD1mGR2

[2] = inhibition of 10 nM [3H]-LY354740 binding, mGlu2 transfected CHO cell membranes, room temperature, 1 hour, read-out: Ki mGlu2

T1 sequence (P31421 19-872): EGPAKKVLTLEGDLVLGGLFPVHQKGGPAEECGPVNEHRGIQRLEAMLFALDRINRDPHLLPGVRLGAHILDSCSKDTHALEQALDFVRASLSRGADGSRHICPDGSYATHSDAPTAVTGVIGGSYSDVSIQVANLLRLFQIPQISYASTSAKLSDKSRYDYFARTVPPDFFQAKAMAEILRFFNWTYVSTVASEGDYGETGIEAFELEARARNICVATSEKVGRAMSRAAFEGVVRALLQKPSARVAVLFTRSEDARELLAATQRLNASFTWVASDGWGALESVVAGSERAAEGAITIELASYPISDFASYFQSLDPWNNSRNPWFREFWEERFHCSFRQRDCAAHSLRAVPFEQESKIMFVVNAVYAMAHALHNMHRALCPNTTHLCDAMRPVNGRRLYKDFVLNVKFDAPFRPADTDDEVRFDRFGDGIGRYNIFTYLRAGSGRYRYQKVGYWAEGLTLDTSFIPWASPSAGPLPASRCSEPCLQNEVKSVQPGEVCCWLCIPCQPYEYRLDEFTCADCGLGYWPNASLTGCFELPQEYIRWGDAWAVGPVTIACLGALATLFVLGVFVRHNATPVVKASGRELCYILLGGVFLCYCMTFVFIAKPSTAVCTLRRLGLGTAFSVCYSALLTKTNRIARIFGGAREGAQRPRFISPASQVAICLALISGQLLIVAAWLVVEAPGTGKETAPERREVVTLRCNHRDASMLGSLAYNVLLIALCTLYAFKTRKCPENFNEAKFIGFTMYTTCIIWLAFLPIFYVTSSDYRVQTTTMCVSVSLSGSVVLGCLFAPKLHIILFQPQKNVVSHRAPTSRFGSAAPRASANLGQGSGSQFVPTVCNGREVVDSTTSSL

Structure (SMILES)	Ki [1, 2]	melting point	Ki [1]
Cc1cc2c(cc1C(F)(F)F)NC(=O)CC(c1cccc(-c3ccnc(N4CCOCC4)c3)c1)=N2 [Example 387, 7-Methyl-4-[3-(2-morpholin-4-yl-pyridin-4-yl)-phenyl]-8-trifluoromethyl-1,3-dihydro-benzo[b][1,4]diazepin-2-one]	–	240 to 242 °C	14.5 nM
Cc1cccc(-c2cccc(C3=Nc4cc(N(C)C)c(C(F)(F)F)cc4NC(=O)C3)c2)n1 [Example 160, 7-Dimethylamino-4-[3-(6-methyl-pyridin-2-yl)-phenyl]-8-trifluoromethyl-1,3-dihydro-benzo[b][1,4]diazepin-2-one]	18.8 nM	195 °C	–
Cc1nccc(-c2cccc(C3=Nc4cc(N(C)C)c(C(F)(F)F)cc4NC(=O)C3)c2)n1 [Example 303, 7-Dimethylamino-4-[3-(2-methyl-pyrimidin-4-yl)-phenyl]-8-trifluoromethyl-1,3-dihydro-benzo[b][1,4]diazepin-2-one]	45 nM	211 to 212 °C	–
Cc1cc(-c2cccc(C3=Nc4cc(C)c(Cl)cc4NC(=O)C3)c2)nc(N2CCOCC2)n1 [Example 327, 8-Chloro-7-methyl-4-[3-(6-methyl-2-morpholin-4-yl-pyrimidin-4-yl)-phenyl]-1,3-dihydro-benzo[b][1,4]diazepin-2-one]	12 nM	252 to 256 °C	–
O=C1CC(c2cccc(-c3cncnc3)c2)=Nc2cc(Cl)c(Cl)cc2N1 [Example 97, 7,8-Dichloro-4-(3-pyrimidin-5-yl-phenyl)-1,3-dihydro-benzo[b][1,4]diazepin-2-one]	–	272 °C	10.7 nM
Cc1ccc(-c2cccc(C3=Nc4cc(N(C)C)c(C(F)(F)F)cc4NC(=O)C3)c2)c(C)n1 [Example 47, 7-Dimethylamino-4-[3-(2,6-dimethyl-pyridin-3-yl)-phenyl]-8-trifluoromethyl-1,3-dihydro-benzo[b][1,4]diazepin-2-one]	22.5 nM	187 to 189 °C	–
O=C1CC(c2cccc(-c3ccccn3)c2)=Nc2cc(Cl)c(Cl)cc2N1 [Example 5, 7,8-Dichloro-4-(3-pyridin-2-yl-phenyl)-1,3-dihydro-benzo[b][1,4]diazepin-2-one]	23.5 nM	239 °C	–
COCCOc1cc2c(cc1C(F)(F)F)NC(=O)CC(c1cccc(-c3ccnc(C#N)c3)c1)=N2 [Example 209, 4-{3-[8-(2-Methoxy-ethoxy)-4-oxo-7-trifluoromethyl-4,5-dihydro-3H-benzo[b][1,4]diazepin-2-yl]-phenyl}-pyridine-2-carbonitrile]	12.8 nM	212 to 213 °C	–
O=C1CC(c2cccc(-c3cccnc3)c2)=Nc2ccc(OCC(F)(F)F)cc2N1 [Example 197, 4-(3-Pyridin-3-yl-phenyl)-8-(2,2,2-trifluoro-ethoxy)-1,3-dihydro-benzo[b][1,4]diazepin-2-one]	10 nM	156 °C	–
COCCNc1nc(C)cc(-c2cccc(C3=Nc4cc(N(C)C)c(C(F)(F)F)cc4NC(=O)C3)c2)n1 [Example 326, 7-Dimethylamino-4-{3-[2-(2-methoxy-ethylamino)-6-methyl-pyrimidin-4-yl]-phenyl}-8-trifluoromethyl-1,3-dihydro-benzo[b][1,4]diazepin-2-one]	8 nM	200 to 203 °C	–
O=C1CC(c2cccc(-c3cnccn3)c2)=Nc2ccc(-n3cccc3)cc2N1 [Example 109, 4-(3-Pyrazin-2-yl-phenyl)-8-pyrrol-1-yl-1,3-dihydro-benzo[b][1,4]diazepin-2-one]	5.5 nM	214 °C	–
COc1ccc(-c2cccc(C3=Nc4ccc(-c5ccccc5F)cc4NC(=O)C3)c2)nn1 [Example 41, 8-(2-Fluoro-phenyl)-4-[3-(6-methoxy-pyridazin-3-yl)-phenyl]-1,3-dihydro-benzo[b][1,4]diazepin-2-one]	24.5 nM	220 °C	–
N#Cc1cc(-c2cccc(C3=Nc4ccc(C(F)(F)F)cc4NC(=O)C3)c2)ccn1 [Example 198, 4-[3-(4-Oxo-7-trifluoromethyl-4,5-dihydro-3H-benzo[b][1,4]diazepin-2-yl)-phenyl]-pyridine-2-carbonitrile]	23.7 nM	239 to 240 °C	–
Cc1cc2c(cc1Cl)NC(=O)CC(c1cccc(-c3ccnnc3)c1)=N2 [Example 48, 8-Chloro-7-methyl-4-(3-pyridazin-4-yl-phenyl)-1,3-dihydro-benzo[b][1,4]diazepin-2-one]	9.35 nM	240 °C (dec.)	–

Second part, led by results:

Ki [1, 2]	melting point	Structure (SMILES)	Ki [1]
2.8 nM	221 °C	Cc1cc2c(cc1C(F)(F)F)N=C(c1cccc(-c3cccnc3)c1)CC(=O)N2 [Example 25, 8-Methyl-4-(3-pyridin-3-yl-phenyl)-7-trifluoromethyl-1,3-dihydro-benzo[b][1,4]diazepin-2-one]	–
5.5 nM	192 °C	CCCN(C)c1cc2c(cc1C(F)(F)F)NC(=O)CC(c1cccc(-c3ccnc(C)c3)c1)=N2 [Example 80, 7-(Methyl-propyl-amino)-4-[3-(2-methyl-pyridin-4-yl)-phenyl]-8-trifluoromethyl-1,3-dihydro benzo[b][1,4]diazepin-2-one]	–
3.9 nM	206 to 209 °C	Cc1ccc(-c2cccc(C3=Nc4ccc(-c5ccccc5F)cc4NC(=O)C3)c2)cn1 [Example 12, 8-(2-Fluoro-phenyl)-4-[3-(6-methyl-pyridin-3-yl)-phenyl]-1,3-dihydro-benzo[b][1,4]diazepin-2-one]	–
2 nM	232 °C	O=C1CC(c2cccc(-c3cccnc3)c2)=Nc2ccc(Cl)cc2N1 [Example 28, 8-Chloro-4-(3-pyridin-3-yl-phenyl)-1,3-dihydro-benzo[b][1,4]diazepin-2-one]	–
3.1 nM	233 °C	Cc1cncc(-c2cccc(C3=Nc4cc(C)c(C(F)(F)F)cc4NC(=O)C3)c2)n1 [Example 129, 7-Methyl-4-[3-(6-methyl-pyrazin-2-yl)-phenyl]-8-trifluoromethyl-1,3-dihydro-benzo[b][1,4]diazepin-2-one]	–
5.5 nM	215 to 218 °C	Cc1ccc(-c2cccc(C3=Nc4ccc(C(F)(F)F)cc4NC(=O)C3)c2)cn1 [Example 9, 4-[3-(6-Methyl-pyridin-3-yl)-phenyl]-8-trifluoromethyl-1,3-dihydro-benzo[b][1,4]diazepin-2-one]	–
3.25 nM	229 °C	Cc1cc(-c2cccc(C3=Nc4cc(N(C)CC(C)C)c(Cl)cc4NC(=O)C3)c2)cc(C)n1 [Example 410, 8-Chloro-4-[3-(2,6-dimethyl-pyridin-4-yl)-phenyl]-7-(isobutyl-methyl-amino)-1,3-dihydro-benzo[b][1,4]diazepin-2-one]	–
3.6 nM	202 °C	Cc1cc(-c2cccc(C3=Nc4cc(OCC(F)(F)F)c(C(F)(F)F)cc4NC(=O)C3)c2)c(C)cn1 [Example 138, 4-[3-(2,5-Dimethyl-pyridin-4-yl)-phenyl]-7-(2,2,2-trifluoro-ethoxy)-8-trifluoromethyl-1,3-dihydro-benzo[b][1,4]diazepin-2-one]	–
4 nM	228 to 230 °C	Cc1cc(-c2cccc(C3=Nc4cc(C)c(C(F)(F)F)cc4NC(=O)C3)c2)nc(NCCO)n1 [Example 322, 4-{3-[2-(2-Hydroxy-ethylamino)-6-methyl-pyrimidin-4-yl]-phenyl}-7-methyl-8-trifluoromethyl-1,3-dihydro-benzo[b][1,4]diazepin-2-one]	–
